Two compounds from US9932332B2, “FXR (NR1H4) modulating compounds” (Gilead Sciences, Inc., priority 2016, dated 2018) can be followed below.

Each structure is given as a SMILES string. pEC50: −log10 of the molar value.

The target in the test is FXR ligand binding domain (Homo sapiens (Human), UniProt Q96RI1). The test is described as follows: Mammalian one hybrid (M1H) Gal4 reporter gene assay in HEK293 cells. It counts as cell-based. Conditions: Gal4-FXR-LBD luciferase reporter, 16 h incubation. The procedure: Determination of a ligand mediated Gal4 promoter driven transactivation to quantify ligand binding mediated activation of FXR was performed as follows: The cDNA part encoding the FXR ligand binding domain was cloned into vector pCMV-BD (Stratagene) as a fusion to the yeast GAL4 DNA binding domain under the control of the CMV promoter. The amino acid boundaries of the ligand binding domain were amino acids 187-472 of Database entry NM_005123 (RefSeq). The plasmid pFR-Luc (Stratagene) was used as the reporter plasmid, containing a synthetic promoter with five tandem repeats of the yeast GAL4 binding sites, driving the expression of the Photinus pyralis (American firefly) luciferase gene as the reporter gene. In order to improve experimental accuracy the plasmid pRL-CMV (Promega) was cotransfected. pRL-CMV contains the constitutive CMV promoter, controlling the expression of the Renilla reniformis luciferase. […] Cells were incubated for additional 16 h before firefly and renilla luciferase activities were measured sequentially in the same cell extract using a Dual-Light-Luciferase-Assay system (Dyer et al., Anal. Biochem. 2000, 282, 158-161). […]
(In a reporter assay the amount or activity of a reporter protein is the signal.)

FXR ligand binding domain, sequence (Q96RI1 other isoform, or with tags, fused parts or gaps): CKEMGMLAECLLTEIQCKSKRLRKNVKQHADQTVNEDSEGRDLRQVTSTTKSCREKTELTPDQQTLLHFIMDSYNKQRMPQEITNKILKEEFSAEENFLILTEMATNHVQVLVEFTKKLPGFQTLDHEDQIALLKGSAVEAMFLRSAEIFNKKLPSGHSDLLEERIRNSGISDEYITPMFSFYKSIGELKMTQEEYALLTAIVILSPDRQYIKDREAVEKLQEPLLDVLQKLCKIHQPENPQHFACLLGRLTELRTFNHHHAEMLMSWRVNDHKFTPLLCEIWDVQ

For orientation: pEC50 means −log10 of the EC50, conventionally taken in molar units. In the case of `O=C(O)c1cc(F)c2nc(C3(O)C4COCC3CC(OCc3c(-c5c(Cl)cccc5Cl)noc3C3CC3)C4)sc2c1` [Example 1, 2-((1R,5S,9S)-7-((5-Cyclopropyl-3-(2,6-dichlorophenyl)isoxazol-4-yl)methoxy)-9-hydroxy-3-oxabicyclo[3.3.1]nonan-9-yl)-4-fluorobenzo[d]thiazole-6-carboxylic acid], the pEC50 was 6.67. Compound `O=C(O)c1ccc2nc(C3(O)C4COCC3CC(OCc3c(-c5c(Cl)cccc5Cl)noc3C3CC3)C4)sc2c1` [Example 2, 2-((1R,5S,9S)-7-((5-Cyclopropyl-3-(2,6-dichlorophenyl)isoxazol-4-yl)methoxy)-9-hydroxy-3-oxabicyclo[3.3.1]nonan-9-yl)benzo[d]thiazole-6-carboxylic acid] had a pEC50 of 6.76.
